Measurements taken from patent US20190031599A1, “INDANE DERIVATIVES AS MGLUR7 MODULATORS” (Takeda Pharmaceutical Company Limited, priority 2016, published 2019).

The compounds below were run against T1, human mGluR7 (Homo sapiens, UniProt Q14831) (assay: mGluR7 assay: CRE-directed luciferase reporter gene assay, reduction of forskolin stimulated cAMP production). Conditions: stable CHO cell line expressing the CRE-luc reporter and human mGluR7 genes; decrease of forskolin stimulated luminescence; 10-point concentration-response, duplicate wells.
T1 construct: expressed in transfected cells
Assay type: cell-based
In short: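 Stable CHO cell line co-expressing human mGluR7 and a CRE-luciferase reporter; compounds preincubated 15 min at 37 °C, then forskolin added and incubated 5 h at 37 °C. 10-point half-log concentration-response in duplicate, normalised to forskolin-alone (max) and forskolin plus tool mGluR7 agonist (min) controls.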

T1 sequence (Q14831 35-915): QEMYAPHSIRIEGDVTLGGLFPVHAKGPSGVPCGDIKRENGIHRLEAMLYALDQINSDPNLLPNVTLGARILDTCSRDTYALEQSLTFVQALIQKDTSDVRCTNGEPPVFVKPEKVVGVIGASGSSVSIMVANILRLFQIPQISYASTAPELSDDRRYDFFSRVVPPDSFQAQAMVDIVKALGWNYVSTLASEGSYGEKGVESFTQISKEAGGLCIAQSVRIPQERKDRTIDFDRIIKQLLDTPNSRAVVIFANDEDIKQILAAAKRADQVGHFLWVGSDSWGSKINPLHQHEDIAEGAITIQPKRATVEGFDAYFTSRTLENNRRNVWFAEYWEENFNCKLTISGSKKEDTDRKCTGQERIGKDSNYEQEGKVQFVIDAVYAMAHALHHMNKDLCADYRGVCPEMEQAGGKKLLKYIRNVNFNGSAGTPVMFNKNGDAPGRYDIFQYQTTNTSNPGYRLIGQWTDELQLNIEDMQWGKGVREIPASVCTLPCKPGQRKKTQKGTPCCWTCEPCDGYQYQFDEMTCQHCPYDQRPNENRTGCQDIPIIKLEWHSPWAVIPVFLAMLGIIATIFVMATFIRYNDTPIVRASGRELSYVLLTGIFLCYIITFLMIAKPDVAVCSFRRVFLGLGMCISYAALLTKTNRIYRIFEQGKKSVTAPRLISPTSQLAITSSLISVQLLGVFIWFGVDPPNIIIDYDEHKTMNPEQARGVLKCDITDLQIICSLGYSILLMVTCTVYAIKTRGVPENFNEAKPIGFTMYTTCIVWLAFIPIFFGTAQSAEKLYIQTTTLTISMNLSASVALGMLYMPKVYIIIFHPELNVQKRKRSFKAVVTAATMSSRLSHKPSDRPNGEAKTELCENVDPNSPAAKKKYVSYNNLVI

| Compound | EC50 |
| --- | --- |
| N[C@H]1c2ccccc2C[C@@H]1NC(=O)C(c1ccc(F)cc1F)N1CC(F)C1 (stereo partly drawn) [Example 105, N-[(1S,2S)-1-amino-2,3-dihydro-1H-inden-2-yl]-2-(2,4-difluorophenyl)-2-(3-fluoroazetidin-1-yl)acetamide] | 146 nM |
| N[C@H]1c2ccccc2C[C@@H]1NC(=O)C(c1ccc(F)cc1F)N1CCC1 (stereo partly drawn) [Example 108, N-[(1S,2S)-1-amino-2,3-dihydro-1H-inden-2-yl]-2-(azetidin-1-yl)-2-(2,4-difluorophenyl)acetamide] | 190 nM |
| COC1CN(C(C(=O)N[C@H]2Cc3ccccc3[C@@H]2N)c2ccc(F)cc2F)C1 (stereo partly drawn) [Example 111, N-[(1S,2S)-1-amino-2,3-dihydro-1H-inden-2-yl]-2-(2,4-difluorophenyl)-2-(3-methoxyazetidin-1-yl)acetamide] | 135 nM |
| N[C@H]1c2ccccc2C[C@@H]1NC(=O)C1(c2ccccc2)CCNC1 (stereo partly drawn) [Example 120, N-[(1S,2S)-1-amino-2,3-dihydro-1H-inden-2-yl]-3-phenylpyrrolidine-3-carboxamide] | 3320 nM |
| N[C@H]1c2ccccc2C[C@@H]1NC(=O)C1(c2ccccc2)CNC(=O)C1 (stereo partly drawn) [Example 122, N-[(1S,2S)-1-amino-2,3-dihydro-1H-inden-2-yl]-5-oxo-3-phenylpyrrolidine-3-carboxamide] | 485 nM |
| C[C@H](C(=O)N[C@H]1Cc2ccccc2[C@@H]1Nc1ncccn1)c1ccc(F)cc1F [Example 133, (2S)-2-(2,4-difluorophenyl)-N-[(1S,2S)-1-[(pyrimidin-2-yl)amino]-2,3-dihydro-1H-inden-2-yl]propanamide] | 178 nM |

Now those with a lower EC50, led by results:

| EC50 | Compound |
| --- | --- |
| 11 nM | C[C@H](C(=O)N[C@@H]1Cc2ccccc2[C@H]1N1CC(F)C1)c1ccc(F)cc1 [Example 112, (2S)—N-[(1R,2R)-1-(3-fluoroazetidin-1-yl)-2,3-dihydro-1H-inden-2-yl]-2-(4-fluorophenyl)propanamide] |
| 38 nM | C[C@H](C(=O)N[C@@H]1Cc2ccccc2[C@H]1S(C)(=O)=O)c1ccc(F)cc1 [Example 113, (2S)-2-(4-fluorophenyl)-N-[(1R,2R)-1-methanesulfonyl-2,3-dihydro-1H-inden-2-yl]propanamide] |
| 101 nM | C[C@H](C(=O)N[C@H]1Cc2ccccc2[C@@H]1N(Cc1ncco1)Cc1ncco1)c1ccc(F)cc1F [Example 114, (2S)—N-[(1S,2S)-1-{bis[(1,3-oxazol-2-yl)methyl]amino}-2,3-dihydro-1H-inden-2-yl]-2-(2,4-difluorophenyl)propanamide] |
| 63 nM | N[C@H]1c2ccccc2C[C@@H]1NC(=O)C(c1ccc(F)cc1F)N1CC(OC(F)F)C1 (stereo partly drawn) [Example 119, N-[(1S,2S)-1-amino-2,3-dihydro-1H-inden-2-yl]-2-[3-(difluoromethoxy)azetidin-1-yl]-2-(2,4-difluorophenyl)acetamide] |
| 42 nM | CC(C)(C)OC(=O)N[C@H]1c2ccccc2C[C@@H]1NC(=O)C1(c2ccccc2)CNC(=O)C1 (stereo partly drawn) [Example 121, tert-butyl N-[(1S,2S)-2-(5-oxo-3-phenylpyrrolidine-3-amido)-2,3-dihydro-1H-1-inden-1-yl]carbamate] |
| 68 nM | CC(C)(C)OC(=O)N[C@H]1c2ccccc2C[C@@H]1NC(=O)C1(c2ccccc2)CC(=O)C1 [Example 123, tert-butyl N-[(1S,2S)-2-(3-oxo-1-phenylcyclobutaneamido)-2,3-dihydro-1H-inden-1-yl]carbamate] |
| 5 nM | C[C@H](C(=O)N[C@H]1Cc2ccccc2[C@@H]1S(C)(=O)=O)c1ccc(F)cc1 [Example 132, (2S)-2-(4-fluorophenyl)-N-[(1S,2S)-1-methanesulfonyl-2,3-dihydro-1H-inden-2-yl]propanamide] |
| 86 nM | CCN[C@H]1c2ccccc2C[C@@H]1NC(=O)[C@@H](C)c1ccc(F)cc1 [Example 134, (2S)—N-[(1S,2S)-1-(ethylamino)-2,3-dihydro-1H-inden-2-yl]-2-(4-fluorophenyl)propanamide] |
